Experimental data: patent US20100130612A1, “COMPOSITION CONTAINING CHITOSAN FOR SUSTAINED DRUG RELEASE” (THE JORDANIAN PHARMACEUTICAL MANUFACTURING CO., priority 2005, published 2010)

Assay: Solubility of acidic drugs in acidic media when combined with chitosan polymer solution
Assay type: physicochemical
Settings: pH<5.0; combined with a respective chitosan polymer solution

solubility in acidic media (in words)	SMILES
soluble in acidic media	O=C(O)Cc1ccccc1Nc1c(Cl)cccc1Cl [diclofenac sodium]
soluble in acidic media	CC(C)Cc1ccc(C(C)C(=O)O)cc1.[Na] (centres unmarked) [ibuprofen sodium]
